Data as given in patent US8133871B2, “Dihydropseudoerythromycin derivatives” (The Kitasato Institute, priority 2005, dated 2012).
Values after ≈ are worked out from the molar mass of the structure shown. Where two headings read alike, the source gives them in different places.

What was measured:
THP-1 cells = assay: THP-1 differentiation induction-promoting activity; format: cell-based; conditions: Homo sapiens, THP-1; lowest concentration necessary to show 50% activity relative to the activity value of erythromycin A at 100 μM; PMA 1-2 μM, 72-96 hr
Protocol: As one index of the anti-inflammatory action of the compound of the present invention, the differentiation induction-promoting activity of THP-1 cell was measured. The measurement was performed as shown below.
THP-1 cells (ATCC No. TIB-202) were adjusted to a concentration of 2×10^5 cells/ml with a medium (RPMI 1640), PMA was added thereto to a final concentration of 1-2 μM, and the mixture was dispensed to each well of a 96 well plate by 100 μl. A solution (100 μl) containing a test substance was adjusted to an appropriate concentration with the medium and added to each well. The mixture was stirred by gently shaking the plate, and incubated under 37° C., 5% CO2 conditions for 72-96 hr. Each well was washed with PBS, a medium containing the viable cell measurement reagent SF (Nacalai Tesque) was added at 100 μl/well and the mixture was incubated under the conditions of 37° C., 5% CO2 for 3-5 hr. The absorbance was measured with a plate reader.
In the Table, the activity value is the lowest concentration necessary for the test compound to show a 50% activity value relative to the activity value of erythromycin A at 100 μM in this experiment.
THP-1 differentiation induction-promoting activity: The lowest concentration necessary for each compound to show 50% activity relative to the activity value of erythromycin A at 100 μM.

A. calcoaceticus IFO2552 = assay: antibacterial activity, MIC (NCCLS method); format: cell-based; conditions: Acinetobacter calcoaceticus
Protocol: (§1) The antibacterial activity of the compound of the present invention and erythromycin were measured according to the antibacterial sensitivity measurement method of the US National Committee for Clinical Laboratory Standards (NCCLS). The values of minimum inhibitory concentration (MIC) (μg/ml) of each compound against bacteria are shown therein.

E. aerogen NCTC10006 = assay: antibacterial activity, MIC (NCCLS method); format: cell-based
Protocol: as §1

E. coli NIHJ JC-2 = assay: antibacterial activity, MIC (NCCLS method); format: cell-based; conditions: Escherichia coli, NIHJJC2
Protocol: as §1

E. faecalis ATCC21212 = assay: antibacterial activity, MIC (NCCLS method); format: cell-based; conditions: Enterococcus faecalis
Protocol: as §1

K. pneumoniae NCTN9632 = assay: antibacterial activity, MIC (NCCLS method); format: cell-based; conditions: Klebsiella pneumoniae
Protocol: as §1

M. luteus ATCC9341 = assay: antibacterial activity, MIC (NCCLS method); format: cell-based; conditions: Micrococcus luteus
Protocol: as §1

S. aureus 8325 (pEP2104) = assay: antibacterial activity, MIC (NCCLS method); format: cell-based; conditions: Staphylococcus aureus
Protocol: as §1

S. aureus FDA209P = assay: antibacterial activity, MIC (NCCLS method); format: cell-based; conditions: Staphylococcus aureus
Protocol: as §1

S. aureus Smith = assay: antibacterial activity, MIC (NCCLS method); format: cell-based; conditions: Staphylococcus aureus
Protocol: as §1

S. epidermidis IFO12648 = assay: antibacterial activity, MIC (NCCLS method); format: cell-based; conditions: Staphylococcus epidermidis
Protocol: as §1

S. marcescens IFO12648 = assay: antibacterial activity, MIC (NCCLS method); format: cell-based; conditions: Serratia marcescens
Protocol: as §1

[1] = test system: trinitrobenzene sulfonate (TNBS)-induced colitis; assay: TNBS-induced colitis in rats, damage of the large intestine scored by the method of Wallace et al.; format: in vivo; conditions: rat TNBS colitis, oral, control 4.27 ± 0.38
Protocol: As an index of the treatment effect of the compound of the present invention on ulcerative colitis and Crohn's disease, an action on trinitrobenzene sulfonate (hereinafter to be indicated as TNBS)-induced colitis was examined using rats. Using 8-week-old male SD rats under pentobarbital anesthesia, TNBS solution was injected into the rectum of animals after fasting for 24 hr or longer and abstaining from water for 5 hr or longer. After injection, a silicone stopper was inserted into the anus to perform a treatment for 3.5-4 hr, whereby a colitis model was prepared. Two days after TNBS administration, model animals were selected based on the fecal occult blood score (fecal occult blood slide 5 shionogi II, Shionogi & Co. Ltd.), body weight and body weight changes, feeding condition, observation score of around anus and bleeding. A test drug was orally administered to the model animals two times a day for 6 days. On the next day of the final drug administration, the large intestine (about 15 cm from the anus) was removed after decapitation and exsanguination, and the level of damage was scored by the method of Wallace et al. (Wallace, J. L. et al, Inhibition of leukotriene synthesis markedly accelerates healing in a rat model of inflammatory bowel disease. Gastroenterology 96, 2936 (1989)), based on which the efficacy was evaluated.

[2] = M. luteus ATCC9341 2002.1.31, read-out: MIC
[3] = dose 10 × 2 (mg/kg)/day for 6 days
[4] = dose 30 × 2 (mg/kg)/day for 6 days
[5] = A. calcoaceticus IFO2552 2002.2.1, read-out: MIC
[6] = E. coli NIHJ JC-2 2002.1.31, read-out: MIC
[7] = E. faecalis ATCC21212 2002.1.31, read-out: MIC
[8] = K. pneumoniae NCTN9632 2002.1.31, read-out: MIC
[9] = S. aureus FDA209P 2002.1.31, read-out: MIC
[10] = S. aureus Smith 2002.1.31, read-out: MIC
[11] = S. epidermidis IFO12648 2002.1.31, read-out: MIC

## CC[C@@H](O)[C@@](C)(O)[C@@H]1OC(=O)[C@H](C)[C@@H](O[C@H]2CC(C)(OC)[C@@H](O)C(C)O2)[C@H](C)[C@@H](O[C@@H]2OC(C)CC(N(C)C)C2O)[C@@]2(C)CC(C)C(O2)[C@@H]1C (stereo partly shown) [EM900, 9-dihydro-pseudoerythromycin A 6,9-epoxide]
THP-1 cells
  minimal effective concentration: 30 µM
A. calcoaceticus IFO2552; IFO2552
  MIC: > 128 µg/mL
E. aerogen NCTC10006
  MIC: > 128 µg/mL
E. coli NIHJ JC-2
  MIC: > 128 µg/mL
E. faecalis ATCC21212; ATCC21212
  MIC: > 128 µg/mL
K. pneumoniae NCTN9632; NCTN9632
  MIC: > 128 µg/mL
M. luteus ATCC9341; [2]
  MIC: 128 µg/mL (≈ 178 µM)
S. aureus 8325 (pEP2104)
  MIC: > 128 µg/mL
S. aureus FDA209P; FDA209P
  MIC: > 128 µg/mL
S. aureus Smith
  MIC: > 128 µg/mL
S. epidermidis IFO12648; IFO12648
  MIC: > 128 µg/mL
S. marcescens IFO12648; IFO12648
  MIC: > 128 µg/mL

## CC[C@@H](O)[C@@](C)(O)[C@@H]1OC(=O)[C@H](C)[C@@H](O[C@H]2CC(C)(OC)[C@@H](O)C(C)O2)[C@H](C)[C@@H](O[C@@H]2OC(C)CC(NC)C2O)[C@@]2(C)CC(C)C(O2)[C@@H]1C (stereo partly shown) [EM901, de(3′-N-methyl)-9-dihydro-pseudoerythromycin A 6,9-epoxide]
THP-1 cells
  minimal effective concentration: 30 µM
A. calcoaceticus IFO2552; IFO2552
  MIC: > 128 µg/mL
E. aerogen NCTC10006
  MIC: > 128 µg/mL
E. coli NIHJ JC-2
  MIC: > 128 µg/mL
E. faecalis ATCC21212; ATCC21212
  MIC: > 128 µg/mL
K. pneumoniae NCTN9632; NCTN9632
  MIC: > 128 µg/mL
M. luteus ATCC9341; ATCC9341
  MIC: > 128 µg/mL
S. aureus 8325 (pEP2104)
  MIC: > 128 µg/mL
S. aureus FDA209P; FDA209P
  MIC: > 128 µg/mL
S. aureus Smith
  MIC: > 128 µg/mL
S. epidermidis IFO12648; IFO12648
  MIC: > 128 µg/mL
S. marcescens IFO12648; IFO12648
  MIC: > 128 µg/mL

## CC[C@@H](O)[C@@](C)(O)[C@@H]1OC(=O)[C@H](C)[C@@H](O[C@H]2CC(C)(OC)[C@@H](O)C(C)O2)[C@H](C)[C@H](O[C@@H]2OC(C)CC(N(C)Cc3ccc(Cl)cc3)C2O)[C@@]2(C)CC(C)C(O2)[C@@H]1C (stereo partly shown) [EM905, de(3′-N-methyl)-3′-N-(p-chlorobenzyl)-9-dihydro-pseudoerythromycin A 6,9-epoxide]
THP-1 cells
  minimal effective concentration: 3 µM
[1]; [3]
  Inflammation score in ulcer: 3.29 ± 0.22
[1]; [4]
  Inflammation score in ulcer: 2.67 ± 0.40
A. calcoaceticus IFO2552; IFO2552
  MIC: > 128 µg/mL
E. aerogen NCTC10006
  MIC: > 128 µg/mL
E. coli NIHJ JC-2
  MIC: > 128 µg/mL
E. faecalis ATCC21212; ATCC21212
  MIC: > 128 µg/mL
K. pneumoniae NCTN9632; NCTN9632
  MIC: > 128 µg/mL
M. luteus ATCC9341; ATCC9341
  MIC: > 128 µg/mL
S. aureus 8325 (pEP2104)
  MIC: > 128 µg/mL
S. aureus FDA209P; FDA209P
  MIC: > 128 µg/mL
S. aureus Smith
  MIC: > 128 µg/mL
S. epidermidis IFO12648; IFO12648
  MIC: > 128 µg/mL
S. marcescens IFO12648; IFO12648
  MIC: > 128 µg/mL

## CC[C@@H](O)[C@@](C)(O)[C@@H]1OC(=O)[C@H](C)[C@@H](O[C@H]2CC(C)(OC)[C@@H](O)C(C)O2)[C@H](C)[C@@H](O[C@@H]2OC(C)CC(N3CCOCC3)C2O)[C@]2(C)CC(C)C(O2)[C@@H]1C (stereo partly shown) [EM914, de(3′-dimethylamino)-3′-morpholino-9-dihydro-pseudoerythromycin A 6,9-epoxide]
THP-1 cells
  minimal effective concentration: 100 µM
[1]; [3]
  Inflammation score in ulcer: 2.93 ± 0.41
[1]; [4]
  Inflammation score in ulcer: 2.69 ± 0.33
A. calcoaceticus IFO2552; IFO2552
  MIC: > 128 µg/mL
E. aerogen NCTC10006
  MIC: > 128 µg/mL
E. coli NIHJ JC-2
  MIC: > 128 µg/mL
E. faecalis ATCC21212; ATCC21212
  MIC: > 128 µg/mL
K. pneumoniae NCTN9632; NCTN9632
  MIC: > 128 µg/mL
S. aureus 8325 (pEP2104)
  MIC: > 128 µg/mL
S. aureus FDA209P; FDA209P
  MIC: > 128 µg/mL
S. aureus Smith
  MIC: > 128 µg/mL
S. marcescens IFO12648; IFO12648
  MIC: > 128 µg/mL

## CC[C@H]1OC(=O)O[C@@]1(C)[C@@H]1OC(=O)[C@H](C)C(=O)[C@H](C)[C@@H](O[C@@H]2OC(C)CC(N(C)Cc3ccc(Cl)cc3)C2O)[C@]2(C)CC(C)C(O2)[C@@H]1C (stereo partly shown) [EM939, de(3′-N-methyl)-3′-N-(p-chlorobenzyl)-de(3-O-cladinosyl)-9-dihydro-3-keto-pseudoerythromycin A 6,9-epoxide 12,13-carbonate]
THP-1 cells
  minimal effective concentration: 3 µM
A. calcoaceticus IFO2552; [5]
  MIC: > 64 µg/mL
E. aerogen NCTC10006; E. aerogen NCTC10006 2002.2.1, read-out: MIC
  MIC: > 64 µg/mL
E. coli NIHJ JC-2; [6]
  MIC: > 64 µg/mL
E. faecalis ATCC21212; [7]
  MIC: > 64 µg/mL
K. pneumoniae NCTN9632; [8]
  MIC: > 64 µg/mL
M. luteus ATCC9341; [2]
  MIC: > 64 µg/mL
S. aureus 8325 (pEP2104)
  MIC: > 64 µg/mL
S. aureus FDA209P; [9]
  MIC: > 64 µg/mL
S. aureus Smith; [10]
  MIC: > 64 µg/mL
S. epidermidis IFO12648; [11]
  MIC: > 64 µg/mL
S. marcescens IFO12648; S. marcescens IFO12648 2002.2.1, read-out: MIC
  MIC: > 64 µg/mL

## CC[C@H]1OC(=O)[C@H](C)[C@@H](O[C@H]2C[C@@](C)(OC)[C@@H](O)[C@H](C)O2)[C@H](C)[C@@H](O[C@@H]2O[C@H](C)C[C@H](N(C)C)[C@H]2O)[C@](C)(O)C[C@@H](C)C(=O)[C@H](C)[C@@H](O)[C@]1(C)O [erythromycin]
A. calcoaceticus IFO2552; [5]
  MIC: 4 µg/mL (≈ 5.45 µM)
E. aerogen NCTC10006
  MIC: 128 µg/mL (≈ 174 µM)
E. coli NIHJ JC-2; [6]
  MIC: 64 µg/mL (≈ 87.2 µM)
E. faecalis ATCC21212; [7]
  MIC: 1 µg/mL (≈ 1.36 µM)
K. pneumoniae NCTN9632; [8]
  MIC: 32 µg/mL (≈ 43.6 µM)
M. luteus ATCC9341; [2]
  MIC: ≤ 0.5 µg/mL
S. aureus 8325 (pEP2104)
  MIC: 64 µg/mL (≈ 87.2 µM)
S. aureus FDA209P; [9]
  MIC: ≤ 0.5 µg/mL
S. aureus Smith; [10]
  MIC: ≤ 0.5 µg/mL
S. epidermidis IFO12648; [11]
  MIC: ≤ 0.5 µg/mL
S. marcescens IFO12648; IFO12648
  MIC: 128 µg/mL (≈ 174 µM)
